In patent publication US20240190868A1, “SOS1 INHIBITORS” (Acerand Therapeutics (USA) Limited, priority 2022, published 2024) one finds IC50 data, which are given here for 14 compounds.

Bounds are passed on as bounds.

In this assay the test system is cellular pERK in NCI-H1975 cells (EGFR/L858R-T790M). In words: pERK potency assay (In Cell ELISA). Type of assay: cell-based. Particulars: Homo sapiens, 1 h compound incubation. The text has this: The assay measures the ability of a compound to inhibit SOS1 function in cells. SOS1 activates RAS proteins by catalyzing the conversion of RAS GDP to RAS GTP in response to receptor tyrosine kinase activation. Activation of RAS induces a sequence of cellular signaling events that result in increased phosphorylation of ERK at Threonine 202 and Tyrosine 204 (pERK). The procedure (i.e., In Cell ELISA as described below) measures the level of cellular pERK in response to a test compound in NCI-H1975 cells (EGFR/L858R-T790M).
First, NCI-H1975 cells were grown and maintained using media and procedures recommended by the ATCC. A day before compound addition, cells were plated in poly-D-lysine coated 96-well cell culture plates (Corning® BioCoat® Cat #356640) at 25000 cells/well/100 μL and grown overnight in an incubator at 37° C. with 5% CO2. A solution of a test compound was prepared with 3-fold serial dilutions in DMSO having a top concentration of 6 mM. On the day of the assay, 50 μL of a test compound dilution in media was added to each well of cell culture plate with a final compound concentration in the range of 0.001 μM to 20 μM. After addition of the compound, cells were incubated for 1 h at 37° C. with 5% CO2, after which the culture medium was removed. Cells were fixed with 4% formaldehyde in phosphate-buffered saline (PBS) and incubated at RT for 20 min. The plate was washed three times with PBST (PBS with 0.05% Tween®-20), followed by incubation with 100 μL of pre-cooled methanol at −20° C. for 20 min. After incubation, methanol was removed. The plate was again washed with PBST. Cells were then permeabilized with 100 μL/well of 0.1% Triton X-100 in PBS at RT for 20 min and then quenched with a quenching buffer (PBST containing 1% H2O2 and 0.1% sodium azide) for 20 min at RT with gentle shaking. After washing once with PBST, a blocking buffer (250 uL/well, Pierce™ Protein-Free-PBS Blocking Buffer, Cat #37572) was then added to the cells for 1-h incubation at RT, followed by an anti-pERK antibody (cell signaling, 1:1000 dilution in 5% BSA in PBST) incubation overnight at 4° C. and a secondary antibody-HRP (Jackson immunoresearch, 1:3000 dilution in 5% BSA in PBST) incubation at RT for 1 h. PBST wash was carried out after each step three times. Before the addition of a substrate (Advansta ELISABright™), the plate was washed with PBS twice to remove detergent residues. The Cellular pERK level was determined using the microplate reader (Biotek Synergy™ H1) to detect the chemiluminescence signal. IC50 was determined by fitting a 4-parameter sigmoidal concentration-response model.

For the compound `Cc1c(C#N)cccc1[C@@H](C)/N=c1\nc(C)n(C)c2cnc(N3CC4CC4C3)cc12` (some centres unmarked) [Compound 72], the IC50 (commonly the concentration that inhibits the measured activity by half) is under 100 nM.

For the compound `Cc1c(C#N)cccc1[C@@H](C)/N=c1\nc(C)n(C)c2cnc(N3CC(C)(O)C3)cc12` [Compound 73], the IC50 is under 100 nM.

For the compound `Cc1c(C#N)cccc1[C@@H](C)/N=c1\nc(C)n(C)c2cnc(N3CCOC[C@H]3C)cc12` [Compound 74], the concentration for half-maximal inhibition (IC50) was under 100 nM.

With `COC1CN(c2cc3/c(=N/[C@H](C)c4cccc(C#N)c4C)nc(C)n(C)c3cn2)C1` [Compound 76], the IC50 is under 100 nM.

On to `Cc1c([C@@H](C)/N=c2\nc3n(c4cnc(N5CCOCC5)cc24)CCC3)cccc1C(F)(F)F` [Compound 77], for which the IC50 is under 100 nM.

For the compound `Cc1c([C@@H](C)/N=c2\nc(C)n(C(C)C)c3cnc(N4CCOCC4)cc23)cccc1C(F)(F)F` [Compound 78], the IC50 is under 100 nM.

With `Cc1c([C@@H](C)/N=c2\nc(C)n(C3CC3)c3cnc(N4CCOCC4)cc23)cccc1C(F)(F)F` [Compound 79], the IC50 is under 100 nM.

Regarding `Cc1c([C@@H](C)/N=c2\nc(C)n(C)c3cnc(N4CCn5c(C(F)F)cnc5C4)cc23)cccc1C(F)(F)F` [Compound 80, (R,Z)-6-(3-(difluoromethyl)-5,6-dihydroimidazo[1,2-a]pyrazin-7(8H)-yl)-1,2-dimethyl-N-(1-(2-methyl-3-(trifluoromethyl)phenyl)ethyl)pyrido[3,4-d]pyrimidin-4(1H)-imine], the 50% inhibitory concentration (IC50) is under 100 nM.

For the compound `CC(=O)N1CCC(O)(c2cc3/c(=N/[C@H](C)c4cccc(C(F)(F)F)c4C)ncn(C)c3c(=O)n2C)CC1` [Compound 81, (R,Z)-6-(1-acetyl-4-hydroxypiperidin-4-yl)-1,7-dimethyl-4-((1-(2-methyl-3-(trifluoromethyl)phenyl)ethyl)imino)-1,7-dihydropyrido[3,4-d]pyrimidin-8(4H)-one], the IC50 is under 100 nM.

`CC(=O)N1CC=C(c2cc3/c(=N/[C@H](C)c4cccc(C(F)(F)F)c4C)ncn(C)c3c(=O)n2C)CC1` [Compound 82, (R,Z)-6-(1-acetyl-1,2,3,6-tetrahydropyridin-4-yl)-1,7-dimethyl-4-((1-(2-methyl-3-(trifluoromethyl)phenyl)ethyl)imino)-1,7-dihydropyrido[3,4-d]pyrimidin-8(4H)-one]: the IC50 was under 100 nM.

Regarding `COc1cc2c(cc1O[C@H]1CCOC1)/c(=N/[C@H](C)c1cccc(C(F)(F)F)c1C)nc(C)n2C` [Compound 84, (Z)-7-methoxy-1,2-dimethyl-N—((R)-1-(2-methyl-3-(trifluoromethyl)phenyl)ethyl)-6-(((S)-tetrahydrofuran-3-yl)oxy)quinazolin-4(1H)-imine], the IC50 was under 100 nM.

As to `CC(=O)NCC#Cc1cc2/c(=N/[C@H](C)c3cccc(C(F)F)c3F)nc(C)n(C)c2cn1` [Compound 85, (R,Z)—N-(3-(4-((1-(3-(difluoromethyl)-2-fluorophenyl)ethyl)imino)-1,2-dimethyl-1,4-dihydropyrido[3,4-d]pyrimidin-6-yl)prop-2-yn-1-yl)acetamide], the IC50 is under 100 nM.

As for `CC(=O)N1CCN(C(=O)c2cc3/c(=N/[C@H](C)c4cccc(C(F)F)c4F)nc(C)n(C)c3cn2)CC1` [Compound 89, (R,Z)-1-(4-(4-((1-(3-(difluoromethyl)-2-fluorophenyl)ethyl)imino)-1,2-dimethyl-1,4-dihydropyrido[3,4-d]pyrimidine-6-carbonyl)piperazin-1-yl)ethan-1-one], the IC50 was under 100 nM.

Consider `CC(=O)N1CCN2c3cc4/c(=N/[C@H](C)c5cccc(C(F)F)c5F)ncn(C)c4cc3OC[C@H]2C1` [Compound 92, 1-((R,Z)-11-(((R)-1-(3-(difluoromethyl)-2-fluorophenyl)ethyl)imino)-8-methyl-1,2,4a,5,8,11-hexahydropyrazino[1′,2′:4,5][1,4]oxazino[3,2-g]quinazolin-3(4H)-yl)ethan-1-one], for which the half-inhibitory concentration (IC50) is under 100 nM.
